In brackets after ≈: the same amount, converted by molar mass. Several values for one entry are separate records, joined by “and”; a condition that tells them apart may be missing. Identical values can stand only once. Like-named read-outs stand apart in the source and are kept apart here.

Experimental findings from patent US20220133842A1 (priority 2019, published 2022) are described below.

Series [1] relates to Acinetobacter baumannii (CIP 110431). The series is classed as cell-based.
For series [2], the system named is Citrobacter farmeri (ATCC 51633). The format is cell-based.
Series [3] relates to Citrobacter rodentium (ATCC 51116). The series is classed as cell-based.
Series [4] has as its system Escherichia coli (ATCC 8739). The format is cell-based.
The subject of series [5] is Klebsiella pneumoniae (DSMZ 26371). The format is cell-based.
Series [6] deals with Klebsiella variicola (DSM 15968). The series is classed as cell-based.
The subject of series [7] is Pseudomonas aeruginosa (CIP 107398). The series is classed as cell-based.
The test system of series [8] is Salmonella enterica (CIP 80.39). The series is classed as cell-based.
Series [9] has as its system Shigella flexneri (ATCC 12022). The format is cell-based.
The test system of series [10] is Bacteroides thetaioataomicron (DSM 2255). Description: microbe, parasite or virus in culture. The format is cell-based.
In series [11] the test system is Helicobacter pylori (ATCC 43504). Description: microbe, parasite or virus in culture. The series is classed as cell-based.
For series [12], the system named is Arthrobacter gandavensis (DSM 2447). The series is classed as cell-based.
For a further series, the system named is Bacillus cereus (DSM 31). The format is cell-based.
The subject of series [13] is Bacillus subtilis (DSM 347). The series is classed as cell-based.
For series [14], the system named is Lactococcus lactis (DSM 20481). The series is classed as cell-based.
The test system of series [15] is Listeria monocytogenes (DSM 20600). The series is classed as cell-based.
Series [16] has as its system Micrococcus luteus (DSM 20030). The format is cell-based.
Series [17] has as its system Staphylococcus aureus MRSA USA300 (ATCC BAA-1717). The format is cell-based.
The test system of series [18] is Staphylococcus aureus (ATCC 6538P). The series is classed as cell-based.
For series [19], the system named is Clostridium botulinum (DSM 1985). Description: microbe, parasite or virus in culture. The series is classed as cell-based. The note with it: Clostridium botulinum, DSM1985.
Series [20] has as its system Clostridium coccoides (DSM 935). Kind of series: microbe, parasite or virus in culture. The format is cell-based.
Series [21] relates to Clostridium difficile (DSM 1296). Kind of series: microbe, parasite or virus in culture. The format is cell-based.
In series [22] the test system is Clostridium nexile (DSM 1787). Description: microbe, parasite or virus in culture. The series is classed as cell-based.
Series [23] has as its system Clostridium propionicum (DSM 6251). Description: microbe, parasite or virus in culture. The format is cell-based.
Series [24] concerns Enterococcus faecalis (DSM 13591). Kind of series: microbe, parasite or virus in culture. The series is classed as cell-based.
The test system of series [25] is Lactobacillus acidophilus (DSM 20079). Kind of series: microbe, parasite or virus in culture. The format is cell-based.
Series [26] has as its system Propionibacterium acnes (ATCC 6919). Description: microbe, parasite or virus in culture. The series is classed as cell-based.
The test system of series [27] is Streptococcus pyogenes (DSM 20565). Description: microbe, parasite or virus in culture. The format is cell-based.
For series [28], the system named is Streptococcus thermophilus (ATCC LMD-9). Description: microbe, parasite or virus in culture. The format is cell-based.
The subject of series [29] is Mycobacterium smegmatis (ATCC 700084). The format is cell-based.
For series [30], the system named is Aspergillus flavus (DSM 1959). The series is classed as cell-based.
Series [31] deals with Aspergillus niger (ATCC 9142). The format is cell-based.
Series [32] concerns Aspergillus ochraceus (DSM 824). The format is cell-based.
The subject of series [33] is Candida albicans (DSM 10697). The series is classed as cell-based.
The test system of series [34] is Fusarium graminearum (DSM 1095). The format is cell-based. The settings on record: Fusarium graminearum (DSM 1095).
The test system of series [35] is Fusarium oxysporum (DSM 62316). The series is classed as cell-based.
The test system of series [36] is Fusarium verticillioides (DSM 62264). The series is classed as cell-based.
The test system of series [37] is Caco-2 cells (ATCC HTB-37). Kind of series: cells. The series is classed as cell-based, human. The note with it: read-out: IC50 (concentration causing 50% cell death).
In a further series the test system is T84 cells (ATCC CCL-248). Description: cells. The settings on record: read-out: IC50 (concentration causing 50% cell death). The series is classed as cell-based, human.
Series [38] has as its system IPEC-J2 cells. Description: cells. The format is cell-based, pig. The settings on record: read-out: IC50 (concentration causing 50% cell death).
For series [39], the system named is Clostridium perfringens (ATCC 13124). The note with it: Clostridium perfringens, ATCC13124.
Series [40] concerns human (Caco-2 and T84) and pig (IPEC-J2) intestinal cells.
Series [41] deals with IPEC-J2 cells.
Series [42] has as its system human or porcine intestinal cells grown on inserts.
Series [43] relates to Clostridium perfringens (ATCC 13124). Description: microbe, parasite or virus in culture. The note with it: ATCC13124.
Series [44] relates to Clostridium perfringens (ATCC13124). The series is classed as cell-based.

As for `CO/C1=C\C(C)=C\[C@@H](C)[C@@H](O)[C@@H](C)C/C(C)=C/C=C/[C@H](OC)[C@@H]([C@@H](C)[C@@H](O)[C@H](C)[C@@]2(O)C[C@@H](O)[C@H](C)[C@@H](C(C)C)O2)OC1=O` [Bafilomycin A1], the MIC in [1] is more than 100 µM; in series [2], 100 µM (≈ 62.3 µg/mL); in [3] it was more than 100 µM; in series [4], 25 µM (≈ 15.6 µg/mL); in series [5], 100 µM (≈ 62.3 µg/mL); in series [6], more than 100 µM. Also, the MIC in [7] is more than 100 µM; in [8] it was more than 100 µM; in [9] it was more than 100 µM; in [10], more than 100 µM; in series [11] it was more than 100 µM; in series [12], 3 µM (≈ 1.87 µg/mL). Moreover, the MIC was 12.5 µM (≈ 7.79 µg/mL) against Bacillus cereus (DSM 31); 100 µM (≈ 62.3 µg/mL) in [13]; 50 µM (≈ 31.1 µg/mL) in series [14]; 25 µM (≈ 15.6 µg/mL) in series [15]; 25 µM (≈ 15.6 µg/mL) in [16]; more than 100 µM in series [17]. Also, the MIC in series [18] is 12.5 µM (≈ 7.79 µg/mL); in series [19], 6.25 µM (≈ 3.89 µg/mL); in [20] it was more than 100 µM; in [21] it was more than 100 µM; in series [22], 50 µM (≈ 31.1 µg/mL); in series [23], 25 µM (≈ 15.6 µg/mL). The MIC in [24] was more than 100 µM; in series [25], 33 µM (≈ 20.6 µg/mL); in [26], 50 µM (≈ 31.1 µg/mL); in [27] it was 66 µM (≈ 41.1 µg/mL); in series [28], 25 µM (≈ 15.6 µg/mL); in series [29] it was more than 100 µM. Besides, the MIC was 3.25 µM (≈ 2.02 µg/mL) in series [30]; more than 100 µM in [31]; more than 100 µM in series [32]; more than 100 µM in series [33]; 6.25 µM (≈ 3.89 µg/mL) in series [34]; more than 100 µM in [35]. The MIC in series [36] amounted to 50 µM (≈ 31.1 µg/mL); in series [39], 25 µM (≈ 15.6 µg/mL). In addition, the IC50 in series [37] was determined as 11.8 µM; with T84 cells (ATCC CCL-248) it was 9.9 µM; in the series with IPEC-J2 cells [38], 1.8 µM. The “MIC (mg/L)” value in series [39] was 15.5 mg/L (≈ 24.9 µM). The “safety factor (IC50 in the toxicity test divided by MIC on Clostridium perfringens ATCC 13124)” value in series [40] is given as “less than 1”. In addition, the “toxicity to intestinal cells” value in [40] is “toxic”. The transepithelial electrical resistance with Caco-2 cells turned out to be 112 ohm.cm2; in the series on T84 cells it was 118 ohm.cm2; with IPEC-J2 cells [41] it was 191 ohm.cm2. The “decrease in transepithelial electrical resistance” value in series [42] is 61-75%.
With `CN(C)[C@@H]1C(O)=C(C(N)=O)C(=O)[C@@]2(O)C(O)=C3C(=O)c4c(O)cccc4[C@@](C)(O)[C@H]3C[C@@H]12` [Tetracycline], in series [43], the MIC is 11.7 µM and 5.2 µg/mL.
On to `Cc1ncc([N+](=O)[O-])n1CCO` [Metronidazole], for which the MIC is 2.34 µM (≈ 0.401 µg/mL) in series [10] (Bacteroides, DSM2255); more than 1500 µM in [11] (Helicobacter pylori, ATCC 21031 / ATCC 43504); 0.29 µM (≈ 0.0496 µg/mL) in [19]; 0.29 µM (≈ 0.0496 µg/mL) in [20] (Blautia producta, DSM935); 1.17 µM (≈ 0.2 µg/mL) in series [21] (Clostridioides difficile, DSM1296); 2.34 µM (≈ 0.401 µg/mL) in series [22] (Faecalimonas nexilis, DSM1787). The MIC in series [23] (Anaerotignum propionicum, DSM6251) is 1.17 µM (≈ 0.2 µg/mL); in series [24] (Enterococcus faecalis, DSM13591) it was more than 1500 µM; in series [25] (Lactobacillus acidophilus, DSM20079), more than 1500 µM; in [26] (Cutibacterium acnes, ATCC6919) it was 1500 µM (≈ 257 µg/mL); in series [27] (Streptococcus pyogenes, DSM20565), more than 1500 µM; in series [28] (Streptococcus thermophilus), 1500 µM (≈ 257 µg/mL). The results for the “increase in MIC” value in series [44] (after 7 days of contact) and in series [44] (after 9 days of contact) were 10 fold and 50-100 fold, respectively. The IC50 is more than 1500 µM in series [37] (Homo sapiens, Caco-2, 48 h); more than 1500 µM with T84 cells (ATCC CCL-248) (Homo sapiens, T84, 48 h); more than 1500 µM with IPEC-J2 cells [38] (Sus scrofa, IPEC-J2, 48 h). The “MIC (mg/L)” value in [39] amounted to 1.60 mg/L (≈ 9.35 µM). Further, the “toxicity to intestinal cells” value in series [40] was “not toxic”. For the same compound, the transepithelial electrical resistance in the series on Caco-2 cells (human) is reported as 252 +/− 13.7 ohm.cm2; in the series on T84 cells (human), 293 +/− 12.3 ohm.cm2; in the series on IPEC-J2 cells [41] (pig) it was 875 +/− 203 ohm.cm2. The “decrease in transepithelial electrical resistance” value in [42] (human, pig) was 0-34%.
